Measured values: ChEMBL document CHEMBL1201862, “PubChem BioAssay data set” (2004)
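Cultured in 96-well plates, cells were exposed to test compound for 48 hours across five concentrations. GI50 = concentration required for 50% inhibition of growth.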 Activity calls are given as the source filed them. Cut-off read from the data, not from the text of the source: active = GI50 up to about 1.1 µM and inactive = higher.

What was measured:
Assay in all cases: inhibition of tumour cell growth, NCI panel, 48 h
NCI-H522 = tested on: NCI-H522
M14 = tested on: M14
MCF7 = tested on: MCF7
HL-60 = tested on: HL-60
PC-3 = tested on: PC-3
SK-MEL-2 = tested on: SK-MEL-2
MDA-MB-435 = tested on: MDA-MB-435
MDA-MB-231 = tested on: MDA-MB-231
OVCAR-5 = tested on: OVCAR-5
KM12 = tested on: KM12
NCI-H460 = tested on: NCI-H460
UACC-62 = tested on: UACC-62
COLO 205 = tested on: COLO 205
K562 = tested on: K562
CCRF-CEM = tested on: CCRF-CEM
TK-10 = tested on: TK-10
SR = tested on: SR
Malme-3M = tested on: Malme-3M
MDA-N = tested on: MDA-N
HCC 2998 = tested on: HCC 2998

Row | Compound | GI50 (NCI-H522) | GI50 (M14) | GI50 (MCF7) | GI50 (HL-60) | GI50 (PC-3) | GI50 (SK-MEL-2) | GI50 (MDA-MB-435) | GI50 (MDA-MB-231) | GI50 (OVCAR-5) | GI50 (KM12) | GI50 (NCI-H460) | GI50 (UACC-62) | GI50 (COLO 205) | GI50 (K562) | GI50 (CCRF-CEM) | GI50 (TK-10) | GI50 (SR) | GI50 (Malme-3M) | GI50 (MDA-N) | GI50 (HCC 2998)
1 | Cc1ccc(-c2nc(-c3nccc4ccccc34)oc2-c2ccccc2)cc1 | 43 µM (inactive) | 24.9 µM (inactive) | 27.9 µM (inactive) | > 100 µM (inactive) | > 100 µM (inactive) | 51.9 µM (inactive) | 64.9 µM (inactive) | > 100 µM (inactive) | > 100 µM (inactive) | 43.1 µM (inactive) | 26.7 µM (inactive) | 46.6 µM (inactive) | 42.9 µM (inactive) | 55.1 µM (inactive) | 84.1 µM (inactive) | 66.8 µM (inactive) | 25.8 µM (inactive) | 96.4 µM (inactive) | 38.7 µM (inactive) | 
2 | OCCCN=C1CCCCC1 | 77.4 µM (inactive) | > 100 µM (inactive) | > 100 µM (inactive) | > 100 µM (inactive) | > 100 µM (inactive) | 56.8 µM (inactive) | > 100 µM (inactive) | > 100 µM (inactive) | > 100 µM (inactive) | > 100 µM (inactive) | > 100 µM (inactive) | > 100 µM (inactive) | > 100 µM (inactive) | > 100 µM (inactive) |  | > 100 µM (inactive) | > 100 µM (inactive) | > 100 µM (inactive) | > 100 µM (inactive) | 
3 | Cn1c(COC(=O)Nc2ccccc2)c(COC(=O)Nc2ccccc2)c2ccc3cc(Cl)c(Cl)cc3c21 |  | 7.71 µM (inactive) | 2.14 µM (inactive) | 2.46 µM (inactive) | 8.05 µM (inactive) | 4.31 µM (inactive) | 7.87 µM (inactive) | 3.33 µM (inactive) | 10.7 µM (inactive) | 10.2 µM (inactive) | 8.2 µM (inactive) | 6.24 µM (inactive) | 3.39 µM (inactive) | 1.07 µM (active) | 1.51 µM (inactive) | 9.4 µM (inactive) |  | 1.74 µM (inactive) | 8.07 µM (inactive) | 5.5 µM (inactive)
4 | CC(C)=CCC[C@H](C)[C@H]1CC[C@@H](C)c2cc(O)c(C)cc21 | 17.4 µM (inactive) | 18.4 µM (inactive) | 17.5 µM (inactive) | 21.1 µM (inactive) | 17.4 µM (inactive) | 17 µM (inactive) | 18.6 µM (inactive) | 18.2 µM (inactive) | 16.1 µM (inactive) | 17.3 µM (inactive) | 18.4 µM (inactive) | 14.5 µM (inactive) | 18.3 µM (inactive) | 20.1 µM (inactive) | 22.9 µM (inactive) | 18.4 µM (inactive) |  | 18.6 µM (inactive) | 17.4 µM (inactive) | 18.9 µM (inactive)
5 | COc1cc(CNc2nc3ccccc3n2Cc2ccccc2)cc(CN2CCOCC2)c1O | 32.4 µM (inactive) | 24.7 µM (inactive) | 31.7 µM (inactive) |  | 29.4 µM (inactive) | 22.4 µM (inactive) | 22.5 µM (inactive) | 18.7 µM (inactive) | 26.5 µM (inactive) | 34.8 µM (inactive) | 50.9 µM (inactive) | 22.9 µM (inactive) | 20.9 µM (inactive) | 21.5 µM (inactive) | 28.3 µM (inactive) | 23.9 µM (inactive) |  | 19.1 µM (inactive) | 27.4 µM (inactive) | 33.9 µM (inactive)
6 | CO[C@@H](c1ccccc1)[C@H](O)[C@@](O)(c1ccccc1)P(=O)(OC)OC | 78.9 µM (inactive) | > 100 µM (inactive) | > 100 µM (inactive) | > 100 µM (inactive) | > 100 µM (inactive) | > 100 µM (inactive) | 44.4 µM (inactive) | > 100 µM (inactive) | > 100 µM (inactive) | 28.4 µM (inactive) | > 100 µM (inactive) | > 100 µM (inactive) | > 100 µM (inactive) | > 100 µM (inactive) | > 100 µM (inactive) | > 100 µM (inactive) | > 100 µM (inactive) | 36.6 µM (inactive) | > 100 µM (inactive) | 
7 | C[C@@H]1OC(=O)C[C@H]2CC(=O)N(CCc3cn(S(=O)(=O)C(F)(F)F)c4ccccc34)C[C@@H]21 | > 100 µM (inactive) | > 100 µM (inactive) | > 100 µM (inactive) |  | > 100 µM (inactive) | > 100 µM (inactive) | > 100 µM (inactive) | > 100 µM (inactive) | > 100 µM (inactive) | > 100 µM (inactive) | > 100 µM (inactive) | > 100 µM (inactive) | > 100 µM (inactive) | > 100 µM (inactive) | > 100 µM (inactive) | > 100 µM (inactive) |  | > 100 µM (inactive) | > 100 µM (inactive) | > 100 µM (inactive)
8 | COc1cccc(Nc2nc3c([nH]2)c(=O)n(C)c(=O)n3C)c1 |  | > 10 µM (inactive) | > 10 µM (inactive) | > 10 µM (inactive) | > 10 µM (inactive) |  | > 10 µM (inactive) | > 10 µM (inactive) |  | > 10 µM (inactive) |  | > 10 µM (inactive) | > 10 µM (inactive) | > 10 µM (inactive) | > 10 µM (inactive) | > 10 µM (inactive) | > 10 µM (inactive) | > 10 µM (inactive) | > 10 µM (inactive) | > 10 µM (inactive)
9 | O=C(CSc1nc2ccc(Cl)cc2c(=O)n1-c1ccccc1)N/N=C1\C(=O)Nc2ccc(F)cc21 | 1.81 µM (inactive) | 3.21 µM (inactive) | 2.1 µM (inactive) | 3.66 µM (inactive) | 2.39 µM (inactive) | 1.95 µM (inactive) | 2.43 µM (inactive) | 2.76 µM (inactive) | 2.9 µM (inactive) | 3.13 µM (inactive) | 3.7 µM (inactive) | 2.39 µM (inactive) | 2.21 µM (inactive) | 3.72 µM (inactive) | 2.7 µM (inactive) | 4.21 µM (inactive) |  | 3.57 µM (inactive) | 2.67 µM (inactive) | 2.69 µM (inactive)
10 | CN(C)Nc1cc(=O)[nH]c(=O)[nH]1 |  | > 100 µM (inactive) | > 100 µM (inactive) | > 100 µM (inactive) | > 100 µM (inactive) |  | > 100 µM (inactive) | > 100 µM (inactive) | > 100 µM (inactive) | > 100 µM (inactive) | > 100 µM (inactive) |  | > 100 µM (inactive) | > 100 µM (inactive) | > 100 µM (inactive) | > 100 µM (inactive) | > 100 µM (inactive) | > 100 µM (inactive) | > 100 µM (inactive) | > 100 µM (inactive)
11 | O=C(n1c(=O)n(-c2ccc([N+](=O)[O-])cc2)c(=O)n1C(=O)C(Cl)(Cl)Cl)C(Cl)(Cl)Cl | > 100 µM (inactive) | > 100 µM (inactive) | 87.3 µM (inactive) | > 100 µM (inactive) | > 100 µM (inactive) | > 100 µM (inactive) | > 100 µM (inactive) | > 100 µM (inactive) | > 100 µM (inactive) | > 100 µM (inactive) | > 100 µM (inactive) | > 100 µM (inactive) | > 100 µM (inactive) | > 10 µM (inactive) | > 100 µM (inactive) | > 100 µM (inactive) |  | > 100 µM (inactive) | > 100 µM (inactive) | > 100 µM (inactive)
12 | COc1ccc(C2C(C#N)=C(S)N(C3OC(COC(C)=O)C(OC(C)=O)C(OC(C)=O)C3OC(C)=O)C(C)=C2C(C)=O)cc1 (stereo not drawn) |  | 57 µM (inactive) | > 100 µM (inactive) | 46.3 µM (inactive) | 31.3 µM (inactive) | > 100 µM (inactive) | 66.4 µM (inactive) | > 100 µM (inactive) | > 100 µM (inactive) | > 100 µM (inactive) | 83.4 µM (inactive) | 57.5 µM (inactive) | 58.2 µM (inactive) | 28.1 µM (inactive) | 30.3 µM (inactive) | > 100 µM (inactive) | 49.1 µM (inactive) | > 100 µM (inactive) | 46.1 µM (inactive) | > 100 µM (inactive)
13 | C=CCCC1CCCCNC1=S (stereo not drawn) |  | > 10 µM (inactive) | > 10 µM (inactive) | > 10 µM (inactive) | > 10 µM (inactive) | > 10 µM (inactive) | > 10 µM (inactive) | > 10 µM (inactive) | > 10 µM (inactive) | > 10 µM (inactive) | > 10 µM (inactive) | > 10 µM (inactive) | > 10 µM (inactive) | > 10 µM (inactive) | > 10 µM (inactive) | > 10 µM (inactive) | > 10 µM (inactive) | > 10 µM (inactive) | > 10 µM (inactive) | > 10 µM (inactive)
14 | COc1ccc(C2=Nc3c(nc(OC)[nH]c3=O)NC(c3ccccc3)C2)cc1 (stereo not drawn) | 28.7 µM (inactive) | 27.3 µM (inactive) | 21.9 µM (inactive) | 19.3 µM (inactive) | 48 µM (inactive) | 25.7 µM (inactive) | 33.3 µM (inactive) | 20.7 µM (inactive) | 46.6 µM (inactive) | 18.2 µM (inactive) |  | 42.8 µM (inactive) | 24.6 µM (inactive) | 25.2 µM (inactive) | 30.8 µM (inactive) |  | 53.1 µM (inactive) | > 100 µM (inactive) | 27 µM (inactive) | 
15 | CCOC(=O)[C@@H]1C[C@@H]1c1ccc(O)c(O)c1 | 4.62 µM (inactive) | 11 µM (inactive) | 16.9 µM (inactive) |  | 12.7 µM (inactive) | 29.7 µM (inactive) | 16.9 µM (inactive) | 11 µM (inactive) | > 100 µM (inactive) | 26 µM (inactive) | 58.9 µM (inactive) | 13.4 µM (inactive) | 27.4 µM (inactive) | 13.8 µM (inactive) |  | > 100 µM (inactive) | 14.5 µM (inactive) | 49.2 µM (inactive) | 17.1 µM (inactive) | 24.9 µM (inactive)
